Test results taken from US20110039770A1, “INHIBITORS OF PROTEIN KINASE C ISOFORMS AND USES THEREOF” (PHARMAGAP INC., priority 2005, published 2011).

Columns and labels:
Experiment in all cases: Tetracycline-induced expression of TIM 17 in IMR32 cells, PKC isoform level
Format in all cases: cell-based
PKC-α = PKC-α (Homo sapiens, UniProt P17252); set-up: endogenous PKC-α in (A) untreated human neuroblastoma (IMR-32) cells; endogenous in cells; host or cells: IMR-32 human neuroblastoma cells; settings: TIM 17 transfected cells + 150 ng/ml tetracycline 48 h; flow cytometry
Procedure: (§1) The specificity and efficacy of compound TIM 17 (see Table 28) was tested intracellularly on 3 PKC isoforms (α, δ and ε), which are the main isoforms expressed in the IMR32 neuroblastoma cell lines and neuroblastoma biopsies.
(§2) The synthetic TIM 17 gene was subcloned into the pREx-DEST31(7559) expression vector and transfected into IMR32 neuroblastoma cells using standard techniques. Transcription of the TIM 17 gene is under the control of a tetracycline promoter that allows gene expression to be switched on and off. Expression of the TIM 17 gene was elicited by treatment with 150 ng/ml of tetracycline for 48 h.
The data were acquired from 20,000 to 50,000 individual cells. The graph scales report the number of events measured at the peak of fluorescence while the percentage of cells positive to the specific anti-PKCalpha antibody is shown on the graphs together with the relative intensity (see number provided below the percentage). The relative intensity correlates to the mean intracellular level of PKCalpha in the cell population.
The expression level of PKC-α, δ and ε was also assessed by fluorescence imaging using anti-PKC antibodies from SantaCruz and secondary Alexa 488 conjugate from Invitrogen. Microscopic images were obtained from a Coulter microscope equipped with epifluorescence and the images analyzed with ImagePro+ software with the assistance of DAGE-MTI camera. […]

PKC delta = PKC delta (Homo sapiens, UniProt Q05655); set-up: endogenous in cells; settings: fluorescence imaging; confirmed by Western blot
Procedure: as §1, §2
(§3) The expression level of PKC-α, δ and ε was also assessed by fluorescence imaging using anti-PKC antibodies from SantaCruz and secondary Alexa 488 conjugate from Invitrogen. Microscopic images were obtained from a Coulter microscope equipped with epifluorescence and the images analyzed with ImagePro+ software with the assistance of DAGE-MTI camera. The same gating was maintained constant for all images. […] The above results were also confirmed by Western blot.

PKC epsilon = target: T1, PKC epsilon (Homo sapiens, UniProt Q02156); set-up: endogenous in cells; settings: fluorescence imaging; confirmed by Western blot
T1 sequence (Q02156 1-737): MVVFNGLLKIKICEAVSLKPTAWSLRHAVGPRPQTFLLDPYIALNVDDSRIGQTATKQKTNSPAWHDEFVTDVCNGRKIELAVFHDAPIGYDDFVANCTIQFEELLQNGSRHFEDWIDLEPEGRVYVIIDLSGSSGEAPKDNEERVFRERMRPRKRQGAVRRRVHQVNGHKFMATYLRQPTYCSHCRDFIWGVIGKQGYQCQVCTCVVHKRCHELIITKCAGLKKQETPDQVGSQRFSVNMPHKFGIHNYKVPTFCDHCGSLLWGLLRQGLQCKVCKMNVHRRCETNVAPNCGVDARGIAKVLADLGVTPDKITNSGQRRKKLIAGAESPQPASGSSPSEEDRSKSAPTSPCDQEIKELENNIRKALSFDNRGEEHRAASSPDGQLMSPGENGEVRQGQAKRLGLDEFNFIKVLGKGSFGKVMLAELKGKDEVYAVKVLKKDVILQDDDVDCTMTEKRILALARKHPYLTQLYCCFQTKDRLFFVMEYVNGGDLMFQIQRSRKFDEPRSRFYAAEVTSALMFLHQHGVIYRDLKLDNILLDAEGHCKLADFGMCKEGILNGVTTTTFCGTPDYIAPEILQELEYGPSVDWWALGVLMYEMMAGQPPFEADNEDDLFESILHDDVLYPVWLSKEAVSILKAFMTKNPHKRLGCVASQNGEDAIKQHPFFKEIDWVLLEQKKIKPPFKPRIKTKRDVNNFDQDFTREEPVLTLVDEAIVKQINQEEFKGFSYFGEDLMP
Procedure: as §1, §2, §3

Chain of PKC delta (Q05655 whole entry): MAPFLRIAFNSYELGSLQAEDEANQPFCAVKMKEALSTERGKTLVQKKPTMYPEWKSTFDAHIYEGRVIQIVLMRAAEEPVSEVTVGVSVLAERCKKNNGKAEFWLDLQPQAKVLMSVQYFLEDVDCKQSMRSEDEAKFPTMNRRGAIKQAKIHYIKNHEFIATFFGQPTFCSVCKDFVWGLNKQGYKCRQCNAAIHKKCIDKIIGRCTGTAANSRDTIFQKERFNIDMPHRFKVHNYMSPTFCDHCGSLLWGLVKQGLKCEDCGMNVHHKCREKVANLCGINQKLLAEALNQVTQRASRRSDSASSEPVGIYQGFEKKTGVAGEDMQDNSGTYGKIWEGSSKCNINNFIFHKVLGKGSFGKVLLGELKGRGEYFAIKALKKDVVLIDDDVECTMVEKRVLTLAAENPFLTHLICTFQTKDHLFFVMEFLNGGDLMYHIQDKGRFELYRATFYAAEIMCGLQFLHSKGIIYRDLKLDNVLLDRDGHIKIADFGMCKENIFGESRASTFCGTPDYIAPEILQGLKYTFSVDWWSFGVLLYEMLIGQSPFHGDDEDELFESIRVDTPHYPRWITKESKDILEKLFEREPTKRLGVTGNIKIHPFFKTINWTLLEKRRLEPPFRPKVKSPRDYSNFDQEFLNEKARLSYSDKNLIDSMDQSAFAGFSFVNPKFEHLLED

## FRRKFRL—(G)7—KDAQNLIGISI [TIM 17]
PKC-α
  percentage of cells expressing similar levels of PKCalpha as controls: 30%
  percentage of population with dramatic decrease in PKC alpha cellular content: 69.8%
PKC delta
  intracellular level of PKC delta: did not, however, alter the intracellular level
PKC epsilon
  intracellular level of PKC epsilon: did not, however, alter the intracellular level
